Results from the supplement of paper PMC7695840.
Where “and” joins values, the source holds several entries; their conditions need not be identical. Equal entries are not always repeated. Structures can show the parent of a compound that is named as a salt.

Experiments:
[1] = tested on: Staphylococcus aureus MW2 (mecA+); assay: IC50 (growth, competition assay); details: cefoxitin: subinhibitory
Procedure, shortened: (§1)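 Pre-induced, 1:1-mixed fluorescent S. aureus MW2 mecA+ and ΔmecA strains were grown 20 h at 37 °C, 90% humidity, unshaken, in LB with a daily-set subinhibitory cefoxitin dose, in 1536-well plates. Compounds were given on five- or nine-point 2-fold gradients, in two dye-swapped replicates. DsRed (540/590) and GFP (485/520) were scaled per plate between single-strain control medians, with No Treatment then set to 0.5. Per-strain IC50 was the dose halving the No Treatment signal, or the maximal signal.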

[2] = tested on: Staphylococcus aureus MW2 delta-mecA (mecA-); assay: IC50 (growth, competition assay); details: cefoxitin: subinhibitory
Procedure, shortened: as §1

Compound	IC50 ([1]; fluorescent label: DsRed)	IC50 ([1]; fluorescent label: GFP)	IC50 ([2]; fluorescent label: DsRed)	IC50 ([2]; fluorescent label: GFP)
CC1(C)S[C@@H]2[C@H](NC(=O)[C@H](NC(=O)N3CCNC3=O)c3ccccc3)C(=O)N2[C@H]1C(=O)O [AZLIN]	32.2 µM	47.2 µM	< 9.85 µM	< 9.85 µM
CC1CCc2cc(F)cc3c(=O)c(C(=O)O)cn1c23 (stereo not drawn) [Flumequine]	< 9.85 µM	< 9.85 µM	< 9.85 µM	< 9.85 µM
C#CC[C@H](c1nc2cc(Cl)ccc2c(=O)n1Nc1ccccc1)N(CCCN)C(=O)c1cccc(Cl)c1F [ARQ 621]	89.2 µM	105 µM	23.9 µM	11.2 µM
CCCCC[C@H](CC(=O)NO)C(=O)N[C@H](C(=O)N1CCC[C@H]1CO)C(C)C [Actinonin]	15.6 µM	11 µM	< 9.85 µM	< 9.85 µM
CC(C)[C@H]1c2ccc(F)cc2CC[C@@]1(CCN(C)CCCc1nc2ccccc2[nH]1)OC(=O)C1CC1 [NNC 55-0396]	14.8 µM	14.9 µM	< 9.85 µM	< 9.85 µM
CC1OC(n2cc(F)c(=O)[nH]c2=O)C(O)C1O (stereo not drawn) [5-fluoro-5'-deoxyuridine]	< 9.85 µM	< 9.85 µM	< 9.85 µM	< 9.85 µM
CC[C@H]1OC(=O)[C@H](C)[C@@H](O[C@H]2C[C@@](C)(OC)[C@@H](O)[C@H](C)O2)[C@H](C)[C@@H](O[C@@H]2O[C@H](C)C[C@H](N(C)C)[C@H]2O)[C@](C)(O)C[C@@H](C)C(=O)[C@H](C)[C@@H](O)[C@]1(C)O [Erythromycin (E-Mycin)]	1.42 µM	1.62 µM	< 0.498 µM	< 0.498 µM
CCn1cnc2c(Nc3cccc(Cl)c3)nc(N[C@@H]3CCCC[C@@H]3N)nc21	65.8 µM	78.3 µM	15.2 µM	17 µM
COCC(=O)O[C@]1(CCN(C)CCCc2nc3ccccc3[nH]2)CCc2cc(F)ccc2[C@@H]1C(C)C [Mibefradil dihydrochloride]	41.1 µM	51.9 µM	16.4 µM	11.2 µM
OCc1ccc(-c2ccc(-c3ccc(CO)s3)o2)s1	22.4 µM	33.5 µM	< 9.85 µM	< 9.85 µM
C[C@@H]1CCO[C@H]2Cn3cc(C(=O)NCc4ccc(F)cc4F)c(=O)c(O)c3C(=O)N12	> 150 µM	> 150 µM	109 µM	59 µM
CC(C)(C)c1cc(/C=C(\C#N)C(N)=S)cc(C(C)(C)C)c1O [Tyrphostin AG 879 (AG 879)]	< 9.85 µM	14 µM	< 9.85 µM	< 9.85 µM
COC(=O)Nc1nc2cc(C(=O)c3cccs3)ccc2[nH]1 [Nocodazole]	24.4 µM	29 µM	< 9.85 µM	< 9.85 µM
CCOc1nc2cccc(C(=O)OCc3oc(=O)oc3C)c2n1Cc1ccc(-c2ccccc2-c2noc(=O)[nH]2)cc1 [Azilsartan Medoxomil (TAK-491)]	48.4 µM	67 µM	11.9 µM	10.2 µM
C=CCc1ccc(O)c(-c2cc(CC=C)ccc2O)c1 [Magnolol]	40.1 µM	49.9 µM	12 µM	8.24 µM
C[C@H]1[C@H](C)CC[C@]2(C(=O)O)CC[C@]3(C)C(=CC[C@@H]4[C@@]5(C)C[C@@H](O)[C@H](O)[C@@](C)(CO)[C@@H]5CC[C@]43C)[C@H]12 [Asiatic acid]	54.9 µM and 27.7 µM	29.7 µM and 27.7 µM	17 µM and 28 µM	17.5 µM and 23.5 µM
Nc1ccn([C@@H]2O[C@H](CO)[C@@H](O)C2(F)F)c(=O)n1 [Gemcitabine hydrochloride]	< 9.85 µM	< 9.85 µM	< 9.85 µM	< 9.85 µM
O[C@@H](COc1cccc2ncccc12)CN1CCN([C@@H]2c3ccccc3[C@@H]3[C@H](c4ccccc42)C3(F)F)CC1	52.2 µM	42.5 µM	14.3 µM	< 9.85 µM
CC(C)CCC[C@@H](C)[C@H]1CC[C@H]2[C@@H]3CC[C@H]4CC(=O)CC[C@]4(C)[C@H]3CC[C@]12C [CHOLESTAN-3-ONE]	> 150 µM	> 150 µM	17.3 µM	31.9 µM

Compound	IC50 ([1]; fluorescent label: DsRed)	IC50 ([1]; fluorescent label: GFP)	IC50 ([2]; fluorescent label: DsRed)	IC50 ([2]; fluorescent label: GFP)
O=c1cc(-c2ccc(O)c(O)c2)oc2cc(O)cc(O)c12 [Luteolin]	57 µM	56.6 µM	27.6 µM	20 µM
CC(=O)OCC(=O)[C@H]1CC[C@H]2[C@@H]3CCC4=CC(=O)CC[C@]4(C)[C@H]3CC[C@]12C [PERCOTEN]	144 µM	62.6 µM	26.6 µM	> 150 µM
CCCCCCCCCCCCCCCC[n+]1ccccc1 [CEPACOL]	< 9.85 µM	< 9.85 µM	< 9.85 µM	< 9.85 µM
O=C(Nc1ncc([N+](=O)[O-])s1)c1ccc([N+](=O)[O-])c(Cl)c1	< 9.85 µM	< 9.85 µM	13.2 µM	15.2 µM
Cc1ccc(S(=O)(=O)C=CC#N)cc1 [BAY 11-7082 (BAY 11-7821)]	< 9.85 µM	9.88 µM	< 9.85 µM	< 9.85 µM
COc1cc(Cc2cnc(N)nc2N)cc(OC)c1OC [TRIMPEX]	< 9.85 µM	< 9.85 µM	< 9.85 µM	< 9.85 µM
CN1CCN(CCCN2c3ccccc3Sc3ccc(Cl)cc32)CC1 [Prochlorperazine dimaleate]	56.2 µM	54.5 µM	21.5 µM	18 µM
O=C(/C=C/c1ccc(O)c(O)c1)c1ccc(O)cc1O [Butein]	92.3 µM	98.5 µM	21.3 µM	30.4 µM
CNCCCC12CCC(c3ccccc31)c1ccccc12 [LUDIOLMIL]	> 150 µM	134 µM	31.2 µM	48.5 µM
CC(=O)Oc1cc2c(c(C)c1OC(C)=O)CC=C1[C@@]2(C)CC[C@@]2(C)C3C[C@](C)(C(=O)O)CC[C@]3(C)CC[C@]12C (stereo partly drawn) [DIHYDROCELASTRYL DIACETATE]	< 9.85 µM	< 9.85 µM	< 9.85 µM	< 9.85 µM
COc1cc(NS(C)(=O)=O)ccc1Nc1c2ccccc2nc2ccccc12 [Amsacrine hydrochloride]	106 µM	97.2 µM	< 9.85 µM	< 9.85 µM
Cc1c(O)c(O)cc2c1CC=C1[C@@]2(C)CC[C@@]2(C)[C@@H]3C[C@](C)(C(=O)O)CC[C@]3(C)CC[C@]12C [DIHYDROCELASTROL]	< 9.85 µM	< 9.85 µM	< 9.85 µM	< 9.85 µM
CCCCCCCCCCCCCCCCOP(=O)([O-])OCC[N+](C)(C)C [Miltefosine (Hexadecylphosphocholine)]	> 150 µM	> 150 µM	36.2 µM	56.8 µM
C=C1C(=O)[C@]23[C@H](CC[C@@H]1[C@@H]2O)[C@]12CO[C@@]3(O)[C@H](O)[C@H]1C(C)(C)CC[C@@H]2O [RUBESCENSIN A]	36.3 µM	84.5 µM	17.9 µM	17.2 µM
CC1(C)S[C@@H]2[C@H](NC(=O)[C@H](N)c3ccc(O)cc3)C(=O)N2[C@H]1C(=O)O [Amoxicillin sodium (Amox)]	< 9.85 µM	15.1 µM	< 9.85 µM	< 9.85 µM
Oc1ccc2ccccc2c1SSc1c(O)ccc2ccccc12 [IPA-3]	< 9.85 µM	< 9.85 µM	< 9.85 µM	< 9.85 µM
CC1(C)CCC2=C(O1)c1ccccc1C(=O)C2=O [beta-Lapachone]	12.9 µM	28.3 µM	< 9.85 µM	< 9.85 µM
CC[C@H](C)[C@H](N)C1=N[C@H](C(=O)N[C@@H](CC(C)C)C(=O)N[C@H](CCC(=O)[O-])C(=O)N[C@H](C(=O)N[C@H]2CCCCNC(=O)[C@H](CC(N)=O)NC(=O)[C@@H](CC(=O)[O-])NC(=O)[C@H](Cc3cnc[nH]3)NC(=O)[C@@H](Cc3ccccc3)NC(=O)[C@H]([C@@H](C)CC)NC(=O)[C@@H](CCCN)NC2=O)[C@@H](C)CC)CS1.[Zn+2] [Bacitracin zinc]	35.2 µM	49.1 µM	4.32 µM	4.06 µM
CN(C)c1ccc(C(=C2C=CC(=[N+](C)C)C=C2)c2ccc(N(C)C)cc2)cc1 [GVS]	< 9.85 µM	< 9.85 µM	< 9.85 µM	< 9.85 µM

Compound	IC50 ([1]; fluorescent label: DsRed)	IC50 ([1]; fluorescent label: GFP)	IC50 ([2]; fluorescent label: DsRed)	IC50 ([2]; fluorescent label: GFP)
O=C(O)c1nn(Cc2ccc(Cl)cc2Cl)c2ccccc12 [Lonidamine]	27.7 µM	78.2 µM	22.4 µM	15 µM
CCCCCCCCCCCCC[N+](C)(C)Cc1ccccc1 [ROCCAL]	< 9.85 µM	< 9.85 µM	< 9.85 µM	< 9.85 µM
Clc1ccc(C(c2ccc(Cl)cc2)[n+]2ccn(CC(OCc3ccc(Cl)cc3Cl)c3ccc(Cl)cc3Cl)c2)cc1 (stereo not drawn) [Calmidazolium chloride]	< 9.85 µM	< 9.85 µM	< 9.85 µM	< 9.85 µM
CO/N=C(\C(=O)N[C@@H]1C(=O)N2C(C(=O)OCOC(=O)C(C)(C)C)=C(/C=C\c3scnc3C)CS[C@H]12)c1csc(N)n1 [Cefditoren pivoxil]	16.7 µM	13.3 µM	< 0.498 µM	< 0.498 µM
CO/N=C(\C(=O)N[C@@H]1C(=O)N2C(C(=O)O)=C(CSc3nc(=O)c(O)nn3C)CS[C@H]12)c1csc(N)n1 [ROCEPHIN]	> 150 µM	> 150 µM	< 9.85 µM	< 9.85 µM
Cc1ccc(C(=O)Nc2ccc(CN3CCN(C)CC3)c(C(F)(F)F)c2)cc1C#Cc1cnc2cccnn12	21.8 µM	27.4 µM	8.28 µM	4.54 µM
O=C(O[C@@H]1Cc2c(O)cc(O)cc2O[C@@H]1c1cc(O)c(=O)c2c(O)c(O)cc([C@H]3Oc4cc(O)cc(O)c4C[C@H]3O)c2c1)c1cc(O)c(O)c(O)c1 [THEAFLAVIN MONOGALLATES]	111 µM	93.4 µM	14.8 µM	20.5 µM
CC(=O)Oc1ccccc1C(=O)Nc1ncc([N+](=O)[O-])s1 [Nitazoxanide (Alinia, Annita)]	55.5 µM	57.6 µM	21.9 µM	24.9 µM
CC1(C)S[C@@H]2[C@H](NC(=O)[C@H](N)c3ccccc3)C(=O)N2[C@H]1C(=O)O [Ampicillin sodium]	< 9.85 µM	15.1 µM	< 9.85 µM	< 9.85 µM
O=C(O[C@@H]1Cc2c(O)cc(O)cc2O[C@@H]1c1cc(O)c(=O)c2c(O)c(O)cc([C@H]3Oc4cc(O)cc(O)c4C[C@H]3OC(=O)c3cc(O)c(O)c(O)c3)c2c1)c1cc(O)c(O)c(O)c1 [THEAFLAVIN DIGALLATE]	> 150 µM	> 150 µM	83.8 µM	57.3 µM
CCCCC[C@H](CC(=O)NO)C(=O)N[C@H](C(=O)N1CCC[C@H]1CO)C(C)C [ACTINONIN]	27.8 µM	37.7 µM	< 9.85 µM	< 9.85 µM
CCC(C)(C)C(=O)O[C@H]1C[C@@H](C)C=C2C=C[C@H](C)[C@H](CC[C@@H]3C[C@@H](O)CC(=O)O3)[C@H]21 [ZOCOR]	129 µM	115 µM	47.8 µM	57.6 µM
C/C(=C\C(=O)Nc1ccccc1C(=O)O)c1ccc2ccccc2c1 [BIBR1532]	< 9.85 µM	12.3 µM	< 9.85 µM	< 9.85 µM
CCCCCCCCCCCCCCCC(=O)OC[C@H](O)[C@H]1OC(=O)C(O)=C1O [EMPROVE]	52.5 µM	87.6 µM	< 9.85 µM	< 9.85 µM
CCn1cc(C(=O)O)c(=O)c2cc3c(cc21)OCO3 [Oxolinic acid]	18.3 µM	16.1 µM	15.1 µM	14.6 µM
C=C1C(=O)[C@]23[C@H](O)[C@H]1CC[C@H]2[C@@]12CO[C@]3(O)[C@@H](O)[C@@H]1C(C)(C)CC[C@@H]2O [Oridonin (Isodonol)]	29.5 µM	51.5 µM	13.7 µM	< 9.85 µM
Cc1nnc(SCC2=C(C(=O)O)N3C(=O)[C@@H](NC(=O)Cn4cnnn4)[C@H]3SC2)s1 [ANCEF]	17.8 µM	14.9 µM	< 9.85 µM	< 9.85 µM
CCN1CCN(C(=O)N[C@@H](C(=O)N[C@@H]2C(=O)N3C(C(=O)O)=C(CSc4nnnn4C)CS[C@H]23)c2ccc(O)cc2)C(=O)C1=O [Cefoperazone (Cefobid)]	4.66 µM	6.86 µM	< 0.498 µM	< 0.498 µM
COc1cc(NS(C)(=O)=O)ccc1Nc1c2ccccc2nc2ccccc12 [AMSIDYL]	74.3 µM	76.1 µM	< 9.85 µM	< 9.85 µM
